PubChem BioAssay (NCI)
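Following 48 hours of exposure in 96-well plates, responses at five concentrations were used to interpolate endpoints linearly. At the TGI there is no net growth.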

Key:
Test in all cases: NCI-60 cell line screen, 48 h
OVCAR-8 ovarian = test system: OVCAR-8 ovarian
RXF 393 renal = test system: RXF 393 renal
NCI-H522 lung = test system: NCI-H522 lung
M14 melanoma = test system: M14 melanoma
SN12C renal = test system: SN12C renal
UACC-62 melanoma = test system: UACC-62 melanoma
MDA-N = test system: MDA-N
HCC-2998 colon = test system: HCC-2998 colon
OVCAR-3 ovarian = test system: OVCAR-3 ovarian
TK-10 renal = test system: TK-10 renal
SW-620 colon = test system: SW-620 colon
SF-268 CNS = test system: SF-268 CNS
OVCAR-5 ovarian = test system: OVCAR-5 ovarian
EKVX NSCLC = test system: EKVX NSCLC
COLO 205 colon = test system: COLO 205 colon
MOLT-4 leukemia = test system: MOLT-4 leukemia
MCF7 breast = test system: MCF7 breast
SK-MEL-2 melanoma = test system: SK-MEL-2 melanoma
HT29 colon = test system: HT29 colon
NCI/ADR-RES ovarian = test system: NCI/ADR-RES ovarian
OVCAR-4 ovarian = test system: OVCAR-4 ovarian
UACC-257 melanoma = test system: UACC-257 melanoma
HOP-62 NSCLC = test system: HOP-62 NSCLC
DU-145 prostate = test system: DU-145 prostate
HCT-15 colon = test system: HCT-15 colon
HOP-92 NSCLC = test system: HOP-92 NSCLC
CAKI-1 renal = test system: CAKI-1 renal
NCI-H226 lung = test system: NCI-H226 lung
K-562 leukemia = test system: K-562 leukemia
786-0 renal = test system: 786-0 renal
T-47D breast = test system: T-47D breast
U251 CNS = test system: U251 CNS
SF-295 CNS = test system: SF-295 CNS
IGROV1 ovarian = test system: IGROV1 ovarian
SF-539 CNS = test system: SF-539 CNS
MDA-MB-435 = test system: MDA-MB-435
CCRF-CEM leukemia = test system: CCRF-CEM leukemia
NCI-H460 lung = test system: NCI-H460 lung
SK-OV-3 ovarian = test system: SK-OV-3 ovarian
MDA-MB-231 breast = test system: MDA-MB-231 breast
SK-MEL-5 melanoma = test system: SK-MEL-5 melanoma
SNB-19 CNS = test system: SNB-19 CNS
ACHN renal = test system: ACHN renal
LOX IMVI melanoma = test system: LOX IMVI melanoma
HCT-116 colon = test system: HCT-116 colon
HL-60(TB) leukemia = test system: HL-60(TB) leukemia
BT-549 breast = test system: BT-549 breast
SK-MEL-28 melanoma = test system: SK-MEL-28 melanoma
PC-3 prostate = test system: PC-3 prostate
A549 NSCLC = test system: A549 NSCLC
UO-31 renal = test system: UO-31 renal
KM12 colon = test system: KM12 colon
HS 578T breast = test system: HS 578T breast
A498 renal = test system: A498 renal
MALME-3M melanoma = test system: MALME-3M melanoma
NCI-H23 lung = test system: NCI-H23 lung
SNB-75 CNS = test system: SNB-75 CNS
SR leukemia = test system: SR leukemia
RPMI-8226 leukemia = test system: RPMI-8226 leukemia

`COc1c(OC)c(OC)c2c(=O)c(OC)c(-c3ccc4c(c3)OCO4)oc2c1OC` was tested, and the TGI (OVCAR-8 ovarian) was over 100 µM, the TGI (RXF 393 renal) was over 100 µM and the TGI (NCI-H522 lung) was over 100 µM. For the same compound, the TGI (M14 melanoma) was over 100 µM, the TGI (SN12C renal) was over 100 µM and the TGI (UACC-62 melanoma) was over 100 µM. It also gave a TGI (MDA-N) of over 100 µM, a TGI (HCC-2998 colon) of over 100 µM and a TGI (OVCAR-3 ovarian) of over 100 µM. It also gave a TGI (TK-10 renal) of over 100 µM, a TGI (SW-620 colon) of over 100 µM and a TGI (SF-268 CNS) of over 100 µM. For the same compound, the TGI (OVCAR-5 ovarian) was over 100 µM, the TGI (EKVX NSCLC) was over 100 µM and the TGI (COLO 205 colon) was over 100 µM. For the same compound, the TGI (MOLT-4 leukemia) was over 100 µM, the TGI (MCF7 breast) was over 100 µM and the TGI (SK-MEL-2 melanoma) was over 100 µM. It also gave a TGI (HT29 colon) of over 100 µM, a TGI (NCI/ADR-RES ovarian) of over 100 µM and a TGI (OVCAR-4 ovarian) of over 100 µM. The TGI (UACC-257 melanoma) was over 100 µM, the TGI (HOP-62 NSCLC) was over 100 µM and the TGI (DU-145 prostate) was over 100 µM. For the same compound, the TGI (HCT-15 colon) was over 100 µM, the TGI (HOP-92 NSCLC) was over 100 µM and the TGI (CAKI-1 renal) was over 100 µM. It also gave a TGI (NCI-H226 lung) of over 100 µM, a TGI (K-562 leukemia) of over 100 µM and a TGI (786-0 renal) of over 100 µM. The TGI (T-47D breast) was over 100 µM, the TGI (U251 CNS) was over 100 µM and the TGI (SF-295 CNS) was over 100 µM. For the same compound, the TGI (IGROV1 ovarian) was over 100 µM, the TGI (SF-539 CNS) was over 100 µM and the TGI (MDA-MB-435) was over 100 µM. The TGI (CCRF-CEM leukemia) was over 100 µM, the TGI (NCI-H460 lung) was over 100 µM and the TGI (SK-OV-3 ovarian) was over 100 µM. For the same compound, the TGI (MDA-MB-231 breast) was over 100 µM, the TGI (SK-MEL-5 melanoma) was over 100 µM and the TGI (SNB-19 CNS) was over 100 µM. For the same compound, the TGI (ACHN renal) was over 100 µM, the TGI (LOX IMVI melanoma) was over 100 µM and the TGI (HCT-116 colon) was over 100 µM. It also gave a TGI (HL-60(TB) leukemia) of 33.4 µM, a TGI (BT-549 breast) of over 100 µM and a TGI (SK-MEL-28 melanoma) of over 100 µM. The TGI (PC-3 prostate) was over 100 µM, the TGI (A549 NSCLC) was over 100 µM and the TGI (UO-31 renal) was over 100 µM. For the same compound, the TGI (KM12 colon) was over 100 µM, the TGI (HS 578T breast) was over 100 µM and the TGI (A498 renal) was over 100 µM. It also gave a TGI (MALME-3M melanoma) of over 100 µM, a TGI (NCI-H23 lung) of over 100 µM and a TGI (SNB-75 CNS) of over 100 µM.

`Fc1c(F)c(F)c(CSc2nc3ccccc3[nH]2)c(F)c1F` showed a TGI (OVCAR-8 ovarian) of over 100 µM, a TGI (RXF 393 renal) of over 100 µM and a TGI (NCI-H522 lung) of over 100 µM. For the same compound, the TGI (M14 melanoma) was over 100 µM, the TGI (SN12C renal) was over 100 µM and the TGI (UACC-62 melanoma) was over 100 µM. The TGI (MDA-N) was over 100 µM, the TGI (HCC-2998 colon) was over 100 µM and the TGI (OVCAR-3 ovarian) was over 100 µM. The TGI (TK-10 renal) was over 100 µM, the TGI (SW-620 colon) was over 100 µM and the TGI (SF-268 CNS) was over 100 µM. It also gave a TGI (OVCAR-5 ovarian) of over 100 µM, a TGI (EKVX NSCLC) of over 100 µM and a TGI (COLO 205 colon) of over 100 µM. It also gave a TGI (MOLT-4 leukemia) of over 100 µM, a TGI (MCF7 breast) of over 100 µM and a TGI (SK-MEL-2 melanoma) of over 100 µM. The TGI (HT29 colon) was over 100 µM, the TGI (NCI/ADR-RES ovarian) was over 100 µM and the TGI (OVCAR-4 ovarian) was over 100 µM. The TGI (SR leukemia) was over 100 µM, the TGI (UACC-257 melanoma) was over 100 µM and the TGI (HOP-62 NSCLC) was over 100 µM. It also gave a TGI (DU-145 prostate) of over 100 µM, a TGI (HCT-15 colon) of over 100 µM and a TGI (HOP-92 NSCLC) of over 100 µM. The TGI (CAKI-1 renal) was over 100 µM, the TGI (NCI-H226 lung) was over 100 µM and the TGI (K-562 leukemia) was over 100 µM. The TGI (T-47D breast) was over 100 µM, the TGI (U251 CNS) was over 100 µM and the TGI (SF-295 CNS) was over 100 µM. It also gave a TGI (IGROV1 ovarian) of over 100 µM, a TGI (SF-539 CNS) of over 100 µM and a TGI (MDA-MB-435) of over 100 µM. For the same compound, the TGI (CCRF-CEM leukemia) was over 100 µM, the TGI (NCI-H460 lung) was over 100 µM and the TGI (SK-OV-3 ovarian) was over 100 µM. For the same compound, the TGI (MDA-MB-231 breast) was over 100 µM, the TGI (SK-MEL-5 melanoma) was over 100 µM and the TGI (SNB-19 CNS) was over 100 µM. For the same compound, the TGI (ACHN renal) was over 100 µM, the TGI (LOX IMVI melanoma) was over 100 µM and the TGI (HCT-116 colon) was over 100 µM. For the same compound, the TGI (HL-60(TB) leukemia) was over 100 µM, the TGI (BT-549 breast) was over 100 µM and the TGI (SK-MEL-28 melanoma) was over 100 µM. For the same compound, the TGI (PC-3 prostate) was over 100 µM, the TGI (A549 NSCLC) was over 100 µM and the TGI (UO-31 renal) was over 100 µM. For the same compound, the TGI (KM12 colon) was over 100 µM, the TGI (HS 578T breast) was over 100 µM and the TGI (RPMI-8226 leukemia) was over 100 µM. It also gave a TGI (A498 renal) of over 100 µM, a TGI (MALME-3M melanoma) of over 100 µM and a TGI (NCI-H23 lung) of over 100 µM. It also gave a TGI (SNB-75 CNS) of over 100 µM.
